Measured values reported in patent EP4810040A2, “INHIBITORS OF APOL1 AND METHODS OF USING SAME” (priority 2020, dated 2022).
Read-outs that look alike come from different tables or passages of the source.

Target: T1, APOL1 G1 (Homo sapiens, UniProt O14791, I384M/S342G)
T1 sequence (O14791 28-398 S342G/I384M): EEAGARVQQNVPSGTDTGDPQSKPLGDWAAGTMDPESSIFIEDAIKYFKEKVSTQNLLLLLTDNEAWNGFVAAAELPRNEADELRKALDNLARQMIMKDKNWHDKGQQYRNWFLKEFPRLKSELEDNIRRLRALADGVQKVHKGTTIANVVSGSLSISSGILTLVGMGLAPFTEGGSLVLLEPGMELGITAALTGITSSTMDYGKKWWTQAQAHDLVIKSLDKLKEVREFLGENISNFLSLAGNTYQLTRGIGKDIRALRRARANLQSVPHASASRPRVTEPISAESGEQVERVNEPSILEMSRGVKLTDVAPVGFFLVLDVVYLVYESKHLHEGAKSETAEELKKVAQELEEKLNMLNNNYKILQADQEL
Assay: MultiTox-Fluor Multiplex Cytotoxicity Assay, tet-inducible APOL1 G1 T-REx-HEK293 cells
Format: cell-based
Set-up: expressed in transfected cells; host or cells: T-REx HEK293, clone G1 DC3.25 (pAAVS1-Puro-APOL1 G1)
Conditions: for IC90: read-out: Multi-Tox Assay IC90; for IC50: IP50 = IC50 for cell proliferation; for Emax: read-out: Multi-Tox Assay Max Activity (%)
Summary of the method: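 T-REx-HEK293 cells carrying tet-inducible APOL1 G1 induced with 50 ng/mL tet alongside compound (top 10 µM, 10-point 3-fold, duplicate) for 24 h at 37 °C. MultiTox-Fluor dead/live protease fluorescence ratio read after 30 min; normalized to no-tet (100% viability) and tet-treated (0%) controls, then curve-fitted.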

[1] = HEK293, Multi-Tox Assay, APOL1 variant (G0/G1/G2) of the HEK293 cells not given
[2] = Multi-Tox Assay, APOL1 variant not given
[3] = Multi-Tox Assay, APOL1 variant (G0/G1/G2) not stated in Table 46
[4] = Multi-Tox Assay, APOL1 variant not stated in Table 46

Structure (SMILES) | IC90 [3] | Emax [4] | also measured
C[C@H]1C[C@@]2(C[C@@H](c3cn(Cc4cnc5cnccn45)nn3)N1)OCC(F)(F)c1cc(Cl)sc12 [Compound 358] | – | – | IC90 [1]: < 50 nM; Multi-Tox Assay Max Activity (%) [2]: 98.0%
C[C@H]1C[C@@]2(C[C@@H](c3cn(CCCO)nn3)N1)OCC(F)(F)c1cc(Cl)sc12 [Compound 359] | – | – | IC90 [1]: < 50 nM; Multi-Tox Assay Max Activity (%) [2]: 98.0%
COc1ccc(Cn2cc([C@@H]3C[C@]4(C[C@H](C)N3)OCC(F)(F)c3cc(Cl)sc34)nn2)cn1 [Compound 360] | – | – | IC90 [1]: 50 to 500 nM
C[C@H]1C[C@@]2(C[C@@H](c3cn(CCO)nn3)N1)OCC(F)(F)c1cc(Cl)sc12 [Compound 361] | 50 to 500 nM | – | Multi-Tox Assay Max Activity (%) [4]: 98.0%
COc1ccc(Cn2cc([C@@H]3C[C@]4(C[C@H](C)N3)OCC(F)(F)c3cc(Cl)sc34)nn2)cc1F [Compound 362] | 50 to 500 nM | – | Multi-Tox Assay Max Activity (%) [4]: 98.0%; IC50 [4]: 50 to 500 nM
C[C@H]1C[C@@]2(C[C@@H](c3cn(C[C@@H](O)CO)nn3)N1)OCC(F)(F)c1cc(Cl)sc12 [Compound 363] | 50 to 500 nM | – | –
C[C@H]1C[C@@]2(C[C@@H](c3cn(CC(C)(C)O)nn3)N1)OCC(F)(F)c1cc(Cl)sc12 [Compound 364] | > 500 nM | – | Multi-Tox Assay Max Activity (%) [4]: 95.0%; IC50 [4]: 50 to 500 nM
C[C@H]1C[C@@]2(C[C@@H](c3cn(Cc4cncs4)nn3)N1)OCC(F)(F)c1cc(Cl)sc12 [Compound 365] | 50 to 500 nM | – | –
C[C@H]1C[C@@]2(C[C@@H](c3cn(Cc4ccc5nc(O)[nH]c5c4)nn3)N1)OCC(F)(F)c1cc(Cl)sc12 [Compound 366] | > 500 nM | – | Multi-Tox Assay Max Activity (%) [4]: 95.0%; IC50 [4]: 50 to 500 nM
C[C@H]1C[C@@]2(C[C@@H](c3cn(CCC(C)(C)O)nn3)N1)OCC(F)(F)c1cc(Cl)sc12 [Compound 367] | < 50 nM | – | –
C[C@H]1C[C@@]2(C[C@@H](c3cn(CC4CCC(=O)NC4)nn3)N1)OCC(F)(F)c1cc(Cl)sc12 (some centres unmarked) [Compound 368] | > 500 nM | – | Multi-Tox Assay Max Activity (%) [4]: 96.0%; IC50 [4]: 50 to 500 nM
C[C@H]1C[C@@]2(C[C@@H](c3cn(CC#N)nn3)N1)OCC(F)(F)c1cc(Cl)sc12 [Compound 369] | > 500 nM | – | Multi-Tox Assay Max Activity (%) [4]: 98.0%; IC50 [4]: 50 to 500 nM
CC(CO)Cn1cc([C@@H]2C[C@]3(C[C@H](C)N2)OCC(F)(F)c2cc(Cl)sc23)nn1 (some centres unmarked) [Compound 370] | 50 to 500 nM | – | IC50 [4]: 50 to 500 nM
COC(=O)C1([C@@H]2C[C@]3(C[C@H](C)N2)OCCc2cc(Cl)sc23)CC1 [Compound 372, methyl 1-[(2'S,6'S,7S)-2-chloro-6'-methyl-spiro[4,5-dihydrothieno[2,3-c]pyran-7,4'-piperidine]-2'-yl]cyclopropanecarboxylate] | > 500 nM | – | Multi-Tox Assay Max Activity (%) [4]: 92.0%
C[C@H]1C[C@@]2(C[C@@H](C3(N)CC3)N1)OCCc1cc(Cl)sc12 [Compound 373, 1-[(2'S,6'S,7S)-2-chloro-6'-methyl-spiro[4,5-dihydrothieno[2,3-c]pyran-7,4'-piperidine]-2'-yl]cyclopropanamine] | 50 to 500 nM | – | –
CC(=O)NC1([C@@H]2C[C@]3(C[C@H](C)N2)OCCc2cc(Cl)sc23)CC1 [Compound 379, N-[1-[(2'S,6'S,7S)-2-chloro-6'-methyl-spiro[4,5-dihydrothieno[2,3-c]pyran-7,4'-piperidine]-2'-yl]cyclopropyl]acetamide] | > 500 nM | – | Multi-Tox Assay Max Activity (%) [4]: 94.0%
C[C@H]1C[C@@]2(C[C@@H](C3(CO)CC3)N1)OCCc1cc(Cl)sc12 [Compound 380, [1-[(2'S,6'S,7S)-2-chloro-6'-methyl-spiro[4,5-dihydrothieno[2,3-c]pyran-7,4'-piperidine]-2'-yl]cyclopropyl]methanol] | 50 to 500 nM | – | –
Cn1cc([C@@H]2C[C@]3(C[C@H](C4CC4)N2)OCCc2cc(Cl)sc23)nn1 [Compound 381, (2'R,6'S,7S)-2-chloro-2'-cyclopropyl-6'-(1-methyltriazol-4-yl)spiro[4,5-dihydrothieno[2,3-c]pyran-7,4'-piperidine]] | < 50 nM | 100% | –
Cn1cc([C@@H]2C[C@]3(C[C@H](C4CC4)N2)OC[C@@H](O)c2cc(Cl)sc23)nn1 [Compound 382, (2'R,4S,6'S,7S)-2-chloro-2'-cyclopropyl-6'-(1-methyltriazol-4-yl)spiro[4,5-dihydrothieno[2,3-c]pyran-7,4'-piperidine]-4-ol] | 50 to 500 nM | 100% | –
Cn1cc([C@@H]2C[C@]3(C[C@H](C4CC4)N2)OCCc2cc(C(F)(F)F)sc23)nn1 [Compound 383, (2'R,6'S,7S)-2'-cyclopropyl-6'-(1-methyltriazol-4-yl)-2-(trifluoromethyl)spiro[4,5-dihydrothieno[2,3-c]pyran-7,4'-piperidine]] | < 50 nM | 100% | –
C[C@H]1C[C@@]2(C[C@@H](c3cn(C)nn3)N1)OCC(C)(O)c1cc(C(F)(F)F)sc12 (stereo partly drawn) [Compound 384, (2'S,6'S,7S)-2',4-dimethyl-6'-(1-methyltriazol-4-yl)-2-(trifluoromethyl)spiro[5H-thieno[2,3-c]pyran-7,4'-piperidine]-4-ol] | < 50 nM | 100% | –
[2H]C1([2H])O[C@@]2(C[C@@H](c3cn(C)nn3)N[C@@H](C)C2)c2sc(Cl)cc2[C@]1([2H])O [Compound 385, (2S,4S,4'S,6S)-2'-chloro-4',5',5'-trideuterio-2-methyl-6-(1-methyltriazol-4-yl)spiro[piperidine-4,7'-thieno[2,3-c]pyran]-4'-ol] | < 50 nM | 100% | –
[2H][13C]([2H])([2H])n1cc([C@@H]2[13CH2][C@]3(C[C@H](C)N2)OC[C@@H](O)c2cc(C(F)(F)F)sc23)nn1 [Compound 386, (2S,4S,4'S,6S)-2-methyl-6-(1-(methyl-^13C-d3)-1H-1,2,3-triazol-4-yl)-2'-(trifluoromethyl)-4',5'-dihydrospiro[piperidine-4,7'-thieno[2,3-c]pyran]-5-^13C-4'-ol] | < 50 nM | 100% | –
Cn1cc([C@@H]2C[C@]3(C[C@H](c4ccccc4)N2)OC[C@@H](O)c2cc(Cl)sc23)nn1 [Compound 387, (2'S,4S,6'R,7S)-2-chloro-2'-(1-methyltriazol-4-yl)-6'-phenyl-spiro[4,5-dihydrothieno[2,3-c]pyran-7,4'-piperidine]-4-ol] | > 500 nM | 94% | –
Cn1cc(C2CC3(CC(C(F)F)N2)OCCc2cc(Cl)sc23)nn1 (centres unmarked) [Compound 388, 2-chloro-2'-(difluoromethyl)-6'-(1-methyltriazol-4-yl)spiro[4,5-dihydrothieno[2,3-c]pyran-7,4'-piperidine]] | > 500 nM | 90% | –
Cn1cc(C2CC3(CC(C(F)F)N2)OCCc2cc(C(F)(F)F)sc23)nn1 (centres unmarked) [Compound 389, 2'-(difluoromethyl)-6'-(1-methyltriazol-4-yl)-2-(trifluoromethyl)spiro[4,5-dihydrothieno[2,3-c]pyran-7,4'-piperidine]] | > 500 nM | 99% | –
C[C@H]1C[C@@]2(C[C@@H](c3cn(C)nn3)N1)OC[C@@H](O)c1sc(C(F)(F)F)cc12 [Compound 390, (2'S,4S,6'S,7R)-2'-methyl-6'-(1-methyltriazol-4-yl)-2-(trifluoromethyl)spiro[6,7-dihydrothieno[3,2-c]pyran-4,4'-piperidine]-7-ol] | < 50 nM | 99% | –
